In ChEMBL document CHEMBL1155523, “Synthesis and biological activity of alpha-L-fucosyl ceramides, analogues of the potent agonist, alpha-D-galactosyl ceramide KRN7000” (2010):

Tested on: iNKT
Assay: Effect on immune response in human iNKT cells stimulated by antigen-presenting CD1d assessed as cellular expansion at 250 nM after 8 days by FACSCalibur flow cytometry relative to control
Type: functional

SMILES	Activity [%]
CCCCC/C=C\C/C=C\CCCCCCCCCC(=O)N[C@@H](CO[C@@H]1O[C@@H](C)[C@@H](O)[C@H](O)[C@@H]1O)[C@H](O)[C@H](O)CCCCCCCCCCCCCC	0.56
CCCCCCCCCCCCCCCCCCCCCCCC(=O)N[C@@H](CO[C@@H]1O[C@@H](C)[C@@H](O)[C@H](O)[C@@H]1O)[C@H](O)[C@H](O)CCCCCCCCCCCCCC	1.1
CCCCCCCCCCCCCCCCCCCCCCCCCC(=O)N[C@@H](CO[C@@H]1O[C@@H](C)[C@@H](O)[C@H](O)[C@@H]1O)[C@H](O)[C@H](O)CCCCCCCCCCCCCC	12
CCCCCCCCCCCCCCCCC(O)C(=O)N[C@@H](CO[C@@H]1O[C@@H](C)[C@@H](O)[C@H](O)[C@@H]1O)[C@H](O)[C@H](O)CCCCCCCCCCCCCC (stereo not given in full)	2.9
CCCCCCCCCCCCCCCCCCCCCCCCCC(=O)N[C@@H](CO[C@H]1O[C@H](CO)[C@H](O)[C@H](O)[C@H]1O)[C@H](O)[C@H](O)CCCCCCCCCCCCCC [RGI-7000]	26
